# Data published in US8673347B2 (Creabilis Therapeutics S.p.A., priority 2005, dated 2014).
# Key:
# [1] = molecular target: BLK (Homo sapiens, UniProt P51451); test: Kinase inhibition profile; type: biochemical; conditions: 200 nM; read-out: inhibitory activity
# Procedure: (§1) The preparation of CT327 and the reference compounds was conducted following a similar procedure. CT327 also was tested at a concentration of 200 nM.
# (§2) The inhibitory activity of CT327 against the tested tyrosine kinase and serine/threonine kinases is shown in the Table a and b, respectively, reported in FIG. 9b.
# [2] = molecular target: CHK1 (Homo sapiens, UniProt O14757); test: Kinase inhibition profile; type: biochemical; conditions: 200 nM; read-out: inhibitory activity
# Procedure: as §1, §2
# [3] = molecular target: CHK2 (Homo sapiens, UniProt O96017); test: Kinase inhibition profile; type: biochemical; conditions: 200 nM; read-out: inhibitory activity
# Chain of CHK2 (O96017 whole entry, species assumed): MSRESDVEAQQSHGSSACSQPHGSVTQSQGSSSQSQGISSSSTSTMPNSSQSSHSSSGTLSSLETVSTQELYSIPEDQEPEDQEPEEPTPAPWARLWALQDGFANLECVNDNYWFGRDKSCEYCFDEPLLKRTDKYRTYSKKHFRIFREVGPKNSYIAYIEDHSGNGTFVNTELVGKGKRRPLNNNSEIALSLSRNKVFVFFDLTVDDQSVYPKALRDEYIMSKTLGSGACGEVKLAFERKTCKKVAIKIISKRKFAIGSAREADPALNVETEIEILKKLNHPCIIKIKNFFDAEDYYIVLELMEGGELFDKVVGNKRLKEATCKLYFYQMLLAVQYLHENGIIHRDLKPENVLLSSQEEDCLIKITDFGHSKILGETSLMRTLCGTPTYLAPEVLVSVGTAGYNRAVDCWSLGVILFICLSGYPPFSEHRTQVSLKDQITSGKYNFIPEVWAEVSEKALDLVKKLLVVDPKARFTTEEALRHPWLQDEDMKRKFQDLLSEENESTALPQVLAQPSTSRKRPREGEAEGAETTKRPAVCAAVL
# Procedure: as §1, §2
# [4] = molecular target: CaMK2a (Homo sapiens, UniProt Q9UQM7); test: Kinase inhibition profile; type: biochemical; conditions: 200 nM; read-out: inhibitory activity
# Chain of CaMK2a (Q9UQM7 whole entry): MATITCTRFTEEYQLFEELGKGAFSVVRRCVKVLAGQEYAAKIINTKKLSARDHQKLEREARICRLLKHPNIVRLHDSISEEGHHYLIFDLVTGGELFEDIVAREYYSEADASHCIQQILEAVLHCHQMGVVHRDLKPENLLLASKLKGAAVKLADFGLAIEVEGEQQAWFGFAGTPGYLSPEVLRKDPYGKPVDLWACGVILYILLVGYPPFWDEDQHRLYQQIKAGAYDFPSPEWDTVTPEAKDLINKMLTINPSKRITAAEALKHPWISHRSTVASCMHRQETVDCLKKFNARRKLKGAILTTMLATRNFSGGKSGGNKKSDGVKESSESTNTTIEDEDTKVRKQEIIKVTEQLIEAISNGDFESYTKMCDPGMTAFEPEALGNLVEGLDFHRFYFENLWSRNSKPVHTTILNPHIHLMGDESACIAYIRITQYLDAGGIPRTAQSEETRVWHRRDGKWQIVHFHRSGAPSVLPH
# Procedure: as §1, §2
# [5] = molecular target: FGR (Homo sapiens, UniProt P09769); test: Kinase inhibition profile; type: biochemical; conditions: 200 nM; read-out: inhibitory activity
# Procedure: as §1, §2
# [6] = molecular target: FLT3 (Homo sapiens, UniProt P36888); test: Kinase inhibition profile; type: biochemical; conditions: 200 nM; read-out: inhibitory activity
# Procedure: as §1, §2
# [7] = molecular target: JAK1 (Homo sapiens, UniProt P23458); test: Kinase inhibition profile; type: biochemical; conditions: 200 nM; read-out: inhibitory activity
# Procedure: as §1, §2
# [8] = molecular target: JAK2 (Homo sapiens, UniProt O60674); test: Kinase inhibition profile; type: biochemical; conditions: 200 nM; read-out: inhibitory activity
# Procedure: as §1, §2
# [9] = molecular target: JAK3 (Homo sapiens, UniProt P52333); test: Kinase inhibition profile; type: biochemical; conditions: 200 nM; read-out: inhibitory activity
# Procedure: as §1, §2
# [10] = molecular target: JNK1 (Homo sapiens, UniProt P45983); test: Kinase inhibition profile; type: biochemical; conditions: 200 nM; read-out: inhibitory activity
# Procedure: as §1, §2
# [11] = molecular target: JNK2 (Homo sapiens, UniProt P45984); test: Kinase inhibition profile; type: biochemical; conditions: 200 nM; read-out: inhibitory activity
# Chain of JNK2 (P45984 whole entry, species assumed): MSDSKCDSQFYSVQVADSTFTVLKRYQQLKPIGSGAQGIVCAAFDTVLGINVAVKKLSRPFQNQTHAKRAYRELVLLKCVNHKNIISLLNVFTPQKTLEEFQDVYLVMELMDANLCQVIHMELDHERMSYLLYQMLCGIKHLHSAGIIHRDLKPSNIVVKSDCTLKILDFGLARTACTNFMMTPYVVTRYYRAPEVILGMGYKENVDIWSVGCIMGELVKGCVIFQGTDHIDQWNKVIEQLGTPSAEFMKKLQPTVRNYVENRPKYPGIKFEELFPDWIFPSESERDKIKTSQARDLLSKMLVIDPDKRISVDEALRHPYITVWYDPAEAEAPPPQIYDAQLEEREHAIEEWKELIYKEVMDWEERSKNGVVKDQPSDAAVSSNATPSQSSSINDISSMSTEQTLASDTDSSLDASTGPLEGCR
# Procedure: as §1, §2
# [12] = molecular target: MER (Homo sapiens, UniProt Q12866); test: Kinase inhibition profile; type: biochemical; conditions: 200 nM; read-out: inhibitory activity
# Procedure: as §1, §2
# [13] = molecular target: MET (Homo sapiens, UniProt P08581); test: Kinase inhibition profile; type: biochemical; conditions: 200 nM; read-out: inhibitory activity
# Chain of MET (P08581 25-1390): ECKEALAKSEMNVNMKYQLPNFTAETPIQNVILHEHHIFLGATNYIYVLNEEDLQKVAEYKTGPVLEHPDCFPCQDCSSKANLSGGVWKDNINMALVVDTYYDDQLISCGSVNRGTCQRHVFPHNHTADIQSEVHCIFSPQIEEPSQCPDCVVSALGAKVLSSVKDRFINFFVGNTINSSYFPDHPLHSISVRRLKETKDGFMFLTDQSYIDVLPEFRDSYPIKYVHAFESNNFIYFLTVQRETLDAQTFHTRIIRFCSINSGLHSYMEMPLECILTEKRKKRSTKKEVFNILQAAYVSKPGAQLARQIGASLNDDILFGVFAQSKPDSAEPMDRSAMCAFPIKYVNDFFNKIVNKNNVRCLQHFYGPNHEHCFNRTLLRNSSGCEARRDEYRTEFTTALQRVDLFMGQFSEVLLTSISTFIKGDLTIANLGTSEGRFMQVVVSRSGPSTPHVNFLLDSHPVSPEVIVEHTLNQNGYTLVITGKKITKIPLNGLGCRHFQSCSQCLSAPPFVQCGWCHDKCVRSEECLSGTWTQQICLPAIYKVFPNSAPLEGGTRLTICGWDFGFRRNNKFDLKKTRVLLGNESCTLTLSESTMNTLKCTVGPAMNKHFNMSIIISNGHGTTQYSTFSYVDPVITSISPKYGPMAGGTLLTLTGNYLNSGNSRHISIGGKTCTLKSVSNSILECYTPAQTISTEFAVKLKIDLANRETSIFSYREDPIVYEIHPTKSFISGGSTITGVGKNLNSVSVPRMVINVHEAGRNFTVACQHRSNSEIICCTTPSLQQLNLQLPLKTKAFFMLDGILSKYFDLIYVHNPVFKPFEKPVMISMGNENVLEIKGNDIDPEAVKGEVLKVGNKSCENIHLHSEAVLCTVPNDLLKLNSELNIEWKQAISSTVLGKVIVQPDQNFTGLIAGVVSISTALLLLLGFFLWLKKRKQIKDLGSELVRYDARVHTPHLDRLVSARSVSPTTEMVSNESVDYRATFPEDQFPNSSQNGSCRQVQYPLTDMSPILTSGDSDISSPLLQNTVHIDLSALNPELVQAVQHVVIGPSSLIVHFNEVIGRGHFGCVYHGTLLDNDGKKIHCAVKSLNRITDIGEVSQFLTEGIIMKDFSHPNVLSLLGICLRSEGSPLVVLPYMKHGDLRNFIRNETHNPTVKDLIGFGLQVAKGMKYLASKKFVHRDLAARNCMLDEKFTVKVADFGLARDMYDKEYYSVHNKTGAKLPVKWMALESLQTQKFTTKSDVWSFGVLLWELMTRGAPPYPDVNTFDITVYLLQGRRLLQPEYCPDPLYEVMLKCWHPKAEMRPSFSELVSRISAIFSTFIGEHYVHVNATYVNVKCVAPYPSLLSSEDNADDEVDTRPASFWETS
# Procedure: as §1, §2
# [14] = molecular target: RET (Homo sapiens, UniProt P07949); test: Kinase inhibition profile; type: biochemical; conditions: 200 nM; read-out: inhibitory activity
# Procedure: as §1, §2
# [15] = molecular target: TNK1 (Homo sapiens, UniProt Q13470); test: Kinase inhibition profile; type: biochemical; conditions: 200 nM; read-out: inhibitory activity
# Chain of TNK1 (Q13470 whole entry, species assumed): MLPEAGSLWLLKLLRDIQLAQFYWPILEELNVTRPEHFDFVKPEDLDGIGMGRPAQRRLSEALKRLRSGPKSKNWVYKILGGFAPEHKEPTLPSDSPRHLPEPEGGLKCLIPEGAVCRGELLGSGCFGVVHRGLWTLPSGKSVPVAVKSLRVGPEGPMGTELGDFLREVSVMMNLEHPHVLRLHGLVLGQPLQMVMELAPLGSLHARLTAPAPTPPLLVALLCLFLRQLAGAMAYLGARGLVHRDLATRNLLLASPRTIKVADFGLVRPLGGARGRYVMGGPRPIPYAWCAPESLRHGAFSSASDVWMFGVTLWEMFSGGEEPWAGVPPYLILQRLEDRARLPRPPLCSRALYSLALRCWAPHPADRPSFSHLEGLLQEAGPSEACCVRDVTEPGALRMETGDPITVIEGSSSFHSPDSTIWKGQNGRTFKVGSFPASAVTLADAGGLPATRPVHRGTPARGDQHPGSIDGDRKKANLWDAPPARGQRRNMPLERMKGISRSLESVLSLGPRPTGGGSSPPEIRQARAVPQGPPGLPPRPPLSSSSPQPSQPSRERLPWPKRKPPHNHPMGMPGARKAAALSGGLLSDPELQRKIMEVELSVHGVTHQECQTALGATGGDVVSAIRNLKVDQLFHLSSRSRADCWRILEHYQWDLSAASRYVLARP
# Procedure: as §1, §2
# [16] = molecular target: TYK2 (Homo sapiens, UniProt P29597); test: Kinase inhibition profile; type: biochemical; conditions: 200 nM; read-out: inhibitory activity
# Procedure: as §1, §2
# [17] = molecular target: TrkB (Homo sapiens, UniProt Q16620); test: Kinase inhibition profile; type: biochemical; conditions: 200 nM; read-out: inhibitory activity
# Chain of TrkB (Q16620 32-822, species assumed): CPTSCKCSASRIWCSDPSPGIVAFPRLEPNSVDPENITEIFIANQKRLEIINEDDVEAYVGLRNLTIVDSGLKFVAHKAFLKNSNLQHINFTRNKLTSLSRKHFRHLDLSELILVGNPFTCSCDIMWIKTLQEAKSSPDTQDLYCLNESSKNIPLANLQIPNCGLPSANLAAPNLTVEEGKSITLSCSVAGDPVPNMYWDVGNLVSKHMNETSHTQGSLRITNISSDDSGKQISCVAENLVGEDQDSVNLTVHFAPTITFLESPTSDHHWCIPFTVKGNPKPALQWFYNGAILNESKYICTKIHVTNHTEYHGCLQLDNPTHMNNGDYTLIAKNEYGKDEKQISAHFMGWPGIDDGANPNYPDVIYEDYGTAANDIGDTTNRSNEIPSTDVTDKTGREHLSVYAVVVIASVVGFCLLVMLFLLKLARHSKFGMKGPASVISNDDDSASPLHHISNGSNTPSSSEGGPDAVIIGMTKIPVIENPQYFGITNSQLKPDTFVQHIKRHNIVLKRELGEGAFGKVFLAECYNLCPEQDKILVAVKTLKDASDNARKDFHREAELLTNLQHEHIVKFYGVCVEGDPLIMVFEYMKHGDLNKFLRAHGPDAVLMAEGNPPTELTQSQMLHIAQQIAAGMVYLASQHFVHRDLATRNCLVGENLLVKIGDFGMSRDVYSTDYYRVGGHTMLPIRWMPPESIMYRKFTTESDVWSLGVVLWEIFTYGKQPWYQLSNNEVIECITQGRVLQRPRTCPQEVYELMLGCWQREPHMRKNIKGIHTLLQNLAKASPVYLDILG
# Procedure: as §1, §2
# [18] = molecular target: TrkC (Homo sapiens, UniProt Q16288); test: Kinase inhibition profile; type: biochemical; conditions: 200 nM; read-out: inhibitory activity
# Chain of TrkC (Q16288 32-839, species assumed): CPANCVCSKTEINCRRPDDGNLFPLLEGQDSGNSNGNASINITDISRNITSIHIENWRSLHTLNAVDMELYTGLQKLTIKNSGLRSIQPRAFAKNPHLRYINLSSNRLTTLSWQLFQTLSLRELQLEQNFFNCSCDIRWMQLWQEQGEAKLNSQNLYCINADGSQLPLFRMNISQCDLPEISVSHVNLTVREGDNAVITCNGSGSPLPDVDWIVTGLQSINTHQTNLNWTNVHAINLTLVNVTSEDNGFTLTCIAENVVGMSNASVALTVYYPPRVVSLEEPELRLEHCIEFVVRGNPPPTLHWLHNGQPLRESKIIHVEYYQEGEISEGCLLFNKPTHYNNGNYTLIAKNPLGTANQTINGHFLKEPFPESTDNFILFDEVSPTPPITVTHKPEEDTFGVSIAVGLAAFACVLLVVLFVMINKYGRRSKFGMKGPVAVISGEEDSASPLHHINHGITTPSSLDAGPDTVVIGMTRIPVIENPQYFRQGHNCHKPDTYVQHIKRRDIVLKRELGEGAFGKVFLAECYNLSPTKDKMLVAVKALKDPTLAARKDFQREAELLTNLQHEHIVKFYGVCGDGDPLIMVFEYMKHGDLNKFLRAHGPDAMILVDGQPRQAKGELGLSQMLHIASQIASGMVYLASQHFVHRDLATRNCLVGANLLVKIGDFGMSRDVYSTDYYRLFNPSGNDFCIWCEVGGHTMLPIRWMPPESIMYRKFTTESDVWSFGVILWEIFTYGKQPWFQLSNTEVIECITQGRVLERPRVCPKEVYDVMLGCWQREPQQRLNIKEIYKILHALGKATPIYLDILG
# Procedure: as §1, §2
# [19] = Acute single dose toxicity study in mice, oral administration; conditions: both sexes, Balb/c, mouse, in vivo
# Procedure: Observations, which included clinical signs and behavioral changes, were performed every 30 minutes in the first 6 hour following administration, and twice a day during the following 7 days.
# Similar results have been obtained following oral administration.
# [20] = test system: LPS-induced endotoxemia; test: Plasma cytokines in mice after LPS-induced endotoxemia; type: in vivo; conditions: parallel experiment, treated before LPS; versus vehicle
# Procedure: A study was performed with the purpose to quantitatively determine a panel of 24 cytokines in the plasma of mice at different time points after LPS-induced endotoxemia and to compare the profiles obtained with those of CT327 pre-treated endotoxemic mice.
# The animals were divided into two experimental groups (55 mice/group) that were treated following this schedule:
# At time 0 both groups received a dose of LPS corresponding to 4 mg/kg, i.p.
# The “treated” experimental group received a single dose of CT327 corresponding to 105.56 mg/kg, i.p. This dose was administered 15 minutes before LPS endotoxemia induction (time 0). At the same time the “control” group received an equivalent volume of vehicle solution.
# Each experimental group was divided into 11 sub-groups with 5 mice/sub-group. Each sub-group was sacrificed at different time points and blood samples collected.
# Time points for blood sample collection were: • Time: time 0 (basal); before LPS treatment • Time: +30 minutes; after LPS treatment • Time: +1 hours; after LPS treatment • Time: +2 hours; after LPS treatment • Time: +3 hours; after LPS treatment • Time: +6 hours; after LPS treatment • Time: +12 hours; after LPS treatment • Time: +18 hours; after LPS treatment • Time: +24 hours; after LPS treatment • Time: +48 hours; after LPS treatment • Time: +72 hours; after LPS treatment
# Blood samples were collected in sodium citrate tubes (100 μl sodium citrate 0.1 M/900 μl of blood) and centrifuged at 1000 g at 4° C. for 10 minutes. Plasma samples were collected and 50 μl/sample were frozen at −80° C. until testing for multiple cytokines profiling. The samples were analyzed in double through the Bio-Plex System (Bio-Rad) by using the 23-plex panel at the Dept. of Genetics, Biology and Biochemistry, Torino University, led by Prof. Silengo. Plasma levels of the following cytokines were determined: IL-1a, IL-1b, IL-2, IL-3, IL-4, IL-5, IL-6, IL-10, IL-12(p40), IL-12(p70), IL-17, G-CSF, GM-CSF, IFN-γ, KC, MIP-1-α, RANTES, TNF-α, IL-9, IL-13, eotaxin, MCP-1, MIP-1-α.
# [21] = test system: protein kinase C (PKC); conditions: cited from earlier work
compound,measurement,setting,value
"COC(=O)[C@]1(O)C[C@@H]2O[C@@]1(C)n1c3ccccc3c3c4c(c5c6ccccc6n2c5c31)C(=O)NC4 [Compound K-252a, K-252a]",inhibition at 0.2 µM,[1],80 to 90%
same,inhibition at 0.2 µM,[2],> 90%
same,inhibition at 0.2 µM,[3],> 90%
same,inhibition at 0.2 µM,[4],80 to 90%
same,inhibition at 0.2 µM,[5],80 to 90%
same,inhibition at 0.2 µM,[6],> 90%
same,inhibition at 0.2 µM,[7],80 to 90%
same,inhibition at 0.2 µM,[8],> 90%
same,inhibition at 0.2 µM,[9],> 90%
same,inhibition at 0.2 µM,[10],> 90%
same,inhibition at 0.2 µM,[11],> 90%
same,inhibition at 0.2 µM,[12],80 to 90%
same,inhibition at 0.2 µM,[13],80 to 90%
same,inhibition at 0.2 µM,[14],> 90%
same,inhibition at 0.2 µM,[15],> 90%
same,inhibition at 0.2 µM,[16],> 90%
same,inhibition at 0.2 µM,[17],> 90%
same,inhibition at 0.2 µM,[18],> 90%
same,LD50 at 7 days,[19],78 mg/kg
same,IFN-γ secretion in plasma,[20],significant reduction
same,MCP-1 secretion in plasma,[20],significant reduction
same,MIP-α secretion in plasma,[20],significant reduction
same,RANTES secretion in plasma,[20],significant reduction
same,TNF-α secretion in plasma,[20],significant reduction
same,inhibition of protein kinase C,[21],strongly inhibits
